The test system of data set [1] is PMA-induced ear inflammation. In words: PMA ear inflammation model, PET/CT imaging. It counts as in vivo, mouse. As to conditions: for detection of PMA-inflamed ear versus vehicle ear by PET: IV injection, about 1 hr post tracer injection ([^18F]FDG from 45 min). On the procedure: 3 Months old Balb/c female mice or 20-26 week-old female C57B16 mice (Taconic) were topically treated with PMA (Sigma) (400 μM) in ethanol on the right ear or vehicle, ethanol, on the left ear. 24 hrs later, inflammation of the right ear was validated by visual inspection for redness and swelling. Mice were then injected IV (unless noted) with [^18F]FN or [^18F]FNS or [^18F]FNG derivatives as noted and PET/CT images were acquired at times indicated, typically 1 hr post injection. Mice, n=3 for [^18F]FN and [^18F]FNS, were euthanized at 1.5 hr post injection for blood metabolism analysis. In one experiment, adult (3 month old Balb/c) were imaged on an in vivo imaging system (IVIS Spectrum, PE; 5 min, binning 16, 25 cm FOV) 10 min post injection of Luminol (200 mg/kg) IP to confirm production of reactive oxygen species. For [^18F]FDG PET imaging experiments, mice were fasted for >4 hr prior to FDG injection. Mice were injected with [^18F]FDG IV under light anesthesia and then allowed to awake, move and drink water at libitum. Cages were kept on a cage warmer during uptake and washout periods. Mice were imaged starting at 45 min post-injection with a 10 min PET/CT scan (Albira, Bruker). In all cases, PET images were acquired for 10 min using a 15 cm FOV; CT images were acquired for fusion using a 7 cm FOV also centered on the object of interest. Image data were decay corrected to injection time (Albira, Bruker) and expressed as % ID/cc or SUV as indicated (PMOD, PMOD Technologies). Actual injected dose was calculated based on measuring the pre- and post-injection activity in the syringe with a dose calibrator on a per mouse basis (Capintec), and mice were individually weighed to calculate individual standardized uptake values. In the context of an acute inflammation model, [^18F]4FN was tested in a pilot experiment in Balb/c mice topically treated with PMA on the right ear or vehicle on the left ear. The treated ear turned red, visually confirming the inflammation site. Mice were injected IP with [^18F]4FN and PET/CT scans were taken at 11 min, 1 h, 2 h and 3 h post injection of tracer (FIG. 5). […] After 1 h, the inflamed ear was clearly visualized (>2% ID/cc). […] Production of reactive oxygen species in the inflamed ear was confirmed by BLI with luminol after PET imaging (FIG. 5) (Gross et al., 2009). This indicated the dependence of the signal on induced inflammation.

Data set [2] can be described thus: Shelf-stability of the formulated radiotracer in PBS (10% EtOH). Type of data set: physicochemical. On the procedure: [^18F]4FN was synthesized on the automated module GE TracerLab-FX from precursor 1 in 6.8±2.5% (n=22) activity yield, by means of a copper-mediated radiofluorination of the corresponding Boc-protected pinacol boronic ester, followed by deprotection, purification and reformulation (Scheme 2; Tredwell et al., 2014). [^18F]4FN was obtained in >99% radiochemical purity, 50-140 GBq/μmol and up to 4 h shelf-stability in PBS (10% EtOH). [^18F]4FN was also stable in mouse plasma for at least 1 h.

Data set [3] concerns Nox2. The experiment in a line: PMA ear inflammation model in Nox2 KO mice, PET/CT imaging. Type of data set: in vivo, mouse. As to conditions: Nox2 KO mice (gp91phox-/-), IP, one-hour post administration. On the procedure: Balb/c mice were treated with either PMA or vehicle and imaged 24 hr post treatment by PET/CT scan at 1 hr post-injection (IP) of [^18F]4FN (FIG. 1A); photograph 3 hr post [^18F]4FN (FIG. 1i). BLI 10 min post luminol injection (FIG. 1C). Aged-matched, 15-week-old female wild-type […] or Nox2 KO mice (n=3 each) were treated with PMA or vehicle and imaged with [^18F]4FN one-hour post IP administration of radiotracer. PET/CT data were quantified using ROIs surrounding the right and left ears. Contrast-to-noise ratios were calculated for all mice and data were plotted as mean and SEM. […] Radioactive HPLC trace and chemical structure of [^18F]4FN (FIG. 1E).
3 Months old Balb/c female mice or 20-26 week-old female C57B16 mice (Taconic) were topically treated with PMA (Sigma) (400 μM) in ethanol on the right ear or vehicle, ethanol, on the left ear. 24 hrs later, inflammation of the right ear was validated by visual inspection for redness and swelling. Mice were then injected IV (unless noted) with [^18F]FN or [^18F]FNS or [^18F]FNG derivatives as noted and PET/CT images were acquired at times indicated, typically 1 hr post injection. Mice, n=3 for [^18F]FN and [^18F]FNS, were euthanized at 1.5 hr post injection for blood metabolism analysis. […]

“Also recorded” adds a separate entry of the source.

Take `Oc1ccc([18F])c2ccccc12` [[^18F]4FN, 4-[^18F]fluoro-1-naphthol]: in data set [1] (Balb/c mice, IP injection), the “clearance of the tracer” value was “renal dominant”, the “crossing of blood-brain barrier (radioactivity in the intracranial region)” value is on record as “may not cross an intact blood-brain barrier”, the hepatobiliary excretion entry is given as “partial hepatobiliary excretion” and the “radioactivity in the liver” value is “low”. Also, the “differentiation in uptake between inflamed right ear and vehicle treated left ear” value in data set [1] (Balb/c mice, IP injection, 11 min post-injection) is “no differentiation in uptake”. The “uptake in inflamed ear” value in data set [1] (Balb/c mice, IP injection, 1 h post injection) is above 2 % ID/cc. Further, the “uptake-ratio between right-inflamed ear and left-control ear” value in data set [1] (IP injection, 11 min to 3 h post injection) is “increased over time”. In data set [1] (IP or IV delivery, n=5), the “Cohen's d effect size, inflamed versus non-inflamed sites” value is on record as “large Cohen's d effect sizes”; the “contrast ratios inflamed versus non-inflamed” value is reported as “strong contrast ratios”; the “difference in SUV between inflamed and vehicle-treated ears” value is reported as “statistically detectable differences in SUV; also recorded: statistically detectable differences in SUVaverage values”. Also, the “detection of PMA-inflamed ear versus vehicle ear by PET” value in data set [1] is “clearly visible”. Further, the “detection of PMA-inflamed ear versus vehicle ear by PET” value in data set [1] (listed as [^18F]FN) is “readily detectable”. Also, the shelf-stability entry in data set [2] is reported as “up to 4 h”. For the same compound, the “difference between inflamed and non-inflamed ear in Nox2 KO mice versus WT” value in data set [3] is “substantially smaller compared to WT inflamed mice; also recorded: decreased contrast between PMA-treated and untreated ears”.

For the origin of these results see patent US20220218851A1, “COMPOUNDS AND METHODS FOR IMAGING IMMUNE ACTIVITY” (Board of Regents, The University of Texas System, priority 2019, published 2022).
